Reference: ChEMBL document CHEMBL4828722, “The synthesis and bioactivity of pyrrolo[2,3-d]pyrimidine derivatives as tyrosine kinase inhibitors for NSCLC cells with EGFR mutations” (Eur J Med Chem, 2021)

Legend:
[1] = tested on: Epidermal growth factor receptor (Homo sapiens), P00533 [C797S]; assay: Inhibition of […] EGFR C797S mutant (unknown origin) at 2 nM pretreated with substrate for 10 mins followed by ATP addition measured after 60 mins by mobility shift assay relative to control
[2] = tested on: Epidermal growth factor receptor (Homo sapiens), P00533 [T790M]; assay: Inhibition of […] EGFR T790M mutant (unknown origin) at 2 nM pretreated with substrate for 10 mins followed by ATP addition measured after 60 mins by mobility shift assay relative to control
NCI-H1975 = assay: Cytotoxicity against human NCI-H1975 cells harboring EGFR L858R/T790M mutant assessed as reduction in cell viability measured after 48 hrs by CCK8 assay; format: functional, cell-based; details: NCI-H1975, 48 h
[3] = Cytotoxicity against human HBE cells assessed as reduction in cell viability measured after 48 hrs by CCK8 assay; format: cell-based
HCC827 = assay: Cytotoxicity against human HCC827 cells harboring EGFR del E746-A750 mutant assessed as reduction in cell viability measured after 48 hrs by CCK8 assay; format: functional, cell-based; details: HCC827, 48 h
A549 = assay: Cytotoxicity against human A549 cells harboring wild type EGFR assessed as reduction in cell viability measured after 48 hrs by CCK8 assay; format: functional, cell-based; details: A549, 48 h
[4] = target: Epidermal growth factor receptor (Homo sapiens, UniProt P00533); assay: Inhibition of wild type EGFR (unknown origin) at 80 nM pretreated with substrate for 10 mins followed by ATP addition measured after 60 mins by mobility shift assay relative to control
Epidermal growth factor receptor, sequence (P00533 whole entry): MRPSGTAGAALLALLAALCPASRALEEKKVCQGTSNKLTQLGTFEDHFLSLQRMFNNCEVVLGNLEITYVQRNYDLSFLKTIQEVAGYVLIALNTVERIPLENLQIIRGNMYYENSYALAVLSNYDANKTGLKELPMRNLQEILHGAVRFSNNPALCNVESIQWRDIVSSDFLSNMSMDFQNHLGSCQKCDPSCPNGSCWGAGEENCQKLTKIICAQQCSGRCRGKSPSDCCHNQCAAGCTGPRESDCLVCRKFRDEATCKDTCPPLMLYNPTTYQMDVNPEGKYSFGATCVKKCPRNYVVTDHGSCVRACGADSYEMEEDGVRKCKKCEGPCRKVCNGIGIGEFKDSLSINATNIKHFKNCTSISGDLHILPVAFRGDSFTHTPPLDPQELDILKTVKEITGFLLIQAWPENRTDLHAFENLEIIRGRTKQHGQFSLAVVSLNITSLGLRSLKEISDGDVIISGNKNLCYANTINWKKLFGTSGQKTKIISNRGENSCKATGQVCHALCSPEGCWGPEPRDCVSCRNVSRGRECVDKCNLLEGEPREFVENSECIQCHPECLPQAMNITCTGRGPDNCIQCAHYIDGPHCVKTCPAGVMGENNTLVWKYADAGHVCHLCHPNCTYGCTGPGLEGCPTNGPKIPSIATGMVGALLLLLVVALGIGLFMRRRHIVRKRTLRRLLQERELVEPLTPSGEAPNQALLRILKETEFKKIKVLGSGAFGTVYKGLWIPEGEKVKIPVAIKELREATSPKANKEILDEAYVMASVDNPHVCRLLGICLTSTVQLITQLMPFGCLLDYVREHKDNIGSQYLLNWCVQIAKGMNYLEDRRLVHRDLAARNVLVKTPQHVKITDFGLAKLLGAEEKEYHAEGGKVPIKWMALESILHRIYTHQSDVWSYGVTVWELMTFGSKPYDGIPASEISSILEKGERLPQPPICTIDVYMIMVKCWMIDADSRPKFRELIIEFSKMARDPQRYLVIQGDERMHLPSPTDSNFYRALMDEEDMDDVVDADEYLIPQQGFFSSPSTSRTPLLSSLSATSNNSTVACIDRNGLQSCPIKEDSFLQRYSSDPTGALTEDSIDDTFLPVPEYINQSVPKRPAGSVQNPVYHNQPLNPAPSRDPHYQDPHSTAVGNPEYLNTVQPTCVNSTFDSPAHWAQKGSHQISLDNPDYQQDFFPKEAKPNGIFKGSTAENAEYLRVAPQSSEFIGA

[5] = tested on: Epidermal growth factor receptor (Homo sapiens), P00533 [L858R,T790M,C797S]; assay: Inhibition of […] EGFR L858R/T790M/C797S mutant (unknown origin) at 2 nM pretreated with substrate for 10 mins followed by ATP addition measured after 60 mins by mobility shift assay relative to control
Epidermal growth factor receptor (Homo sapiens), P00533 [L858R,T790M,C797S], sequence (P00533 whole entry T790M/C797S/L858R): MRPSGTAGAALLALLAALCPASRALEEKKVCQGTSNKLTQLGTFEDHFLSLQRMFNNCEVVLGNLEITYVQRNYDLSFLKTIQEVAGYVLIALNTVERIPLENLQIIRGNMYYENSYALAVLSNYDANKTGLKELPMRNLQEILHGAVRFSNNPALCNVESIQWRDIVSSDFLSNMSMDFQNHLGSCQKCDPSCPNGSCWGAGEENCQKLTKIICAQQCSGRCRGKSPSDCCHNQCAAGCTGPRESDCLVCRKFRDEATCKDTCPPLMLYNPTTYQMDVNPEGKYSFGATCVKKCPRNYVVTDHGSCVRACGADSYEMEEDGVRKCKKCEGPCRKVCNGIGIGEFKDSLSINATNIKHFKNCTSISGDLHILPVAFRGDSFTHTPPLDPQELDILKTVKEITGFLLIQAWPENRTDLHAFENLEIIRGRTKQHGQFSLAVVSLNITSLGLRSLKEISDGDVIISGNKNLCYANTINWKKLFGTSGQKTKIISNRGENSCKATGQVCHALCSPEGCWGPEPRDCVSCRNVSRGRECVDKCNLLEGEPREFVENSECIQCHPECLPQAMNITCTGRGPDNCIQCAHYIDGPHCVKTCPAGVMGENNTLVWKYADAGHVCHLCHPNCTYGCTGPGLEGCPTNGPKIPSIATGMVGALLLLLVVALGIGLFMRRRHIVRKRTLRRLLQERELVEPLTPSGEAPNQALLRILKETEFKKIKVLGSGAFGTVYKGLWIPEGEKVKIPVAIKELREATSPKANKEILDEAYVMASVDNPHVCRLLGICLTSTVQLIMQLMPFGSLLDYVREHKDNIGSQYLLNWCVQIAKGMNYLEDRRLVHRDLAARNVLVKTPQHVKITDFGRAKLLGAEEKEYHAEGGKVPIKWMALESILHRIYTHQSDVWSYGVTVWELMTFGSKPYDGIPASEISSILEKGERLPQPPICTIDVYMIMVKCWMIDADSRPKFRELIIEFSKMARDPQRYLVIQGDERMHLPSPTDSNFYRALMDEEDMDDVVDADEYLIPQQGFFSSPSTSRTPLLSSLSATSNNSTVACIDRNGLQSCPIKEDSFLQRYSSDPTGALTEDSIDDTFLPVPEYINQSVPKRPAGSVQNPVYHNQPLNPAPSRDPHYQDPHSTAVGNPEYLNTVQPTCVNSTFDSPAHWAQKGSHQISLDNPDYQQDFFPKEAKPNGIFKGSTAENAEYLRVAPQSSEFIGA

NCI-H460 = assay: Cytotoxicity against human NCI-H460 cells harboring wild type EGFR assessed as reduction in cell viability measured after 48 hrs by CCK8 assay; format: functional, cell-based; details: NCI-H460, 48 h
[6] = tested on: Epidermal growth factor receptor (Homo sapiens), P00533 [UNDEFINED MUTATION]; assay: Inhibition of […] EGFR Del E746/A750 mutant (unknown origin) at 2 nM pretreated with substrate for 10 mins followed by ATP addition measured after 60 mins by mobility shift assay relative to control
Epidermal growth factor receptor (Homo sapiens), P00533 [UNDEFINED MUTATION], sequence (P00533 whole entry, looked up, stated change not applied): as the sequence (P00533 whole entry) above

[7] = tested on: Epidermal growth factor receptor (Homo sapiens), P00533 [L858R]; assay: Inhibition of […] EGFR L858R mutant (unknown origin) at 2 nM pretreated with substrate for 10 mins followed by ATP addition measured after 60 mins by mobility shift assay relative to control
[8] = tested on: Epidermal growth factor receptor (Homo sapiens), P00533 [L858R,T790M]; assay: Inhibition of […] EGFR L858R/T790M mutant (unknown origin) at 2 nM pretreated with substrate for 10 mins followed by ATP addition measured after 60 mins by mobility shift assay relative to control
Epidermal growth factor receptor (Homo sapiens), P00533 [L858R,T790M], sequence (P00533 whole entry T790M/L858R, looked up): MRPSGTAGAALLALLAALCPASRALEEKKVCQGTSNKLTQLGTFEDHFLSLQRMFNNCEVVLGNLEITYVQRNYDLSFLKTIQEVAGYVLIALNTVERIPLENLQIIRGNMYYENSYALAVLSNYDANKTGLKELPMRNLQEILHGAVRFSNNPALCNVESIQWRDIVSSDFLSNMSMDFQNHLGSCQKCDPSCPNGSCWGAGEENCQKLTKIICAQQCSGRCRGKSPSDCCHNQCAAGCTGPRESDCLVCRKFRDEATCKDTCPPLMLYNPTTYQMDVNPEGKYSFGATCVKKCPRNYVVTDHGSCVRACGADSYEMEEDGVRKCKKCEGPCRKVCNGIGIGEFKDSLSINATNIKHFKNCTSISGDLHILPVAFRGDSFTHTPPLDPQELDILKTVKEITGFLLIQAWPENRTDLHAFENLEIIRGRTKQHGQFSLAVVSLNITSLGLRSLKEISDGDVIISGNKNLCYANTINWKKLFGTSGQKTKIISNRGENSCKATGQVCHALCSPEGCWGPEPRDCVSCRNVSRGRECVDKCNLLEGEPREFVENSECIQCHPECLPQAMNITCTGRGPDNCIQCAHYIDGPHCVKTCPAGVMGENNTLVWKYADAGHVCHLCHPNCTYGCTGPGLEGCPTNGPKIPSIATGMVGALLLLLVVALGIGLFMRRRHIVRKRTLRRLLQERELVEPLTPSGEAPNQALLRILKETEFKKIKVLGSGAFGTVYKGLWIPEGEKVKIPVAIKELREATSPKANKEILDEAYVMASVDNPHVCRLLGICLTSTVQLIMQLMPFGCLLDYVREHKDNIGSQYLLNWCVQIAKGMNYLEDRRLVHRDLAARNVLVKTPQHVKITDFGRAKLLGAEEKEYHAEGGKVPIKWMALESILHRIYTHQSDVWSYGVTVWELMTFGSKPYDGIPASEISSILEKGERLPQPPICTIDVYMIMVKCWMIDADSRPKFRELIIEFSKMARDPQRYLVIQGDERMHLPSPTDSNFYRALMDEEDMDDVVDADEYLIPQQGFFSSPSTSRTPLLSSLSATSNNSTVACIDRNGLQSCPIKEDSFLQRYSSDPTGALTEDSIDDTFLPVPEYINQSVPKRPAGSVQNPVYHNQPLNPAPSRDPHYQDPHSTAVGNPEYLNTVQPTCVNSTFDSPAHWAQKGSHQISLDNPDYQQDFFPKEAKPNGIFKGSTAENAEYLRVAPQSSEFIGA

BEAS-2B = assay: Cytotoxicity against human BEAS-2B cells assessed as reduction in cell viability measured after 48 hrs by CCK8 assay; format: cell-based

inhibition [1] [%]	inhibition [2] [%]	inhibition [4] [%]	inhibition [5] [%]	inhibition [6] [%]	inhibition [7] [%]	inhibition [8] [%]	Compound	IC50 (NCI-H1975) [µM]	IC50 [3] [µM]	IC50 (HCC827) [µM]	IC50 (A549) [µM]	IC50 (NCI-H460) [µM]	IC50 (BEAS-2B) [µM]
2.2	7.3	4.5	3.6	11	9.7	2.4	C=CC(=O)Nc1cccc(Oc2nc(Nc3ccc(N4CCN(C)CC4)c(N)c3)nc3c2ccn3COC(=O)C(C)(C)C)c1	42	9.58	0.33	10.8	7.65	9.54
6.3	7.9	4.7	8.4	0.41	13	3.5	C=CC(=O)Nc1cccc(Oc2nc(Nc3ccc(N4CCN(C)CC4)c([N+](=O)[O-])c3)nc3c2ccn3COC(=O)C(C)(C)C)c1	4.12	3.61	0.44	3.1	4.68	5.73
4.8	98	86	9.2	44	41	92	C=CC(=O)Nc1cccc(Oc2nc(Nc3ccc(N4CCN(C)CC4)c(Cl)c3)nc3[nH]ccc23)c1	1.67	8.73	0.12	1.68	4.86	3.8
13	97	32	7.8	25	31	42	C=CC(=O)Nc1cccc(Oc2nc(Nc3ccc(N4CCN(C)CC4)c(OC)c3)nc3[nH]ccc23)c1	22.4	12.5	0.26	20.6	33.6	9.89
							C=CC(=O)Nc1cccc(Oc2nc(Nc3ccc(N4CCN(C)CC4)cc3)nc3[nH]ccc23)c1	22	28.1	0.24	9.92	36	23.8
